# Test results published in patent US12625139B2, “Methods for modulation of acetyltransferase activity and applications thereof including treatments” (The Board of Trustees of the Leland Stanford Junior …, priority 2019, dated 2026).
# Where a name gives a salt, the structure may show the parent alone.
# System: CBP/p300 acetyltransferase
# Experiment: not given
# Details: stated as known; cited from earlier work
row,Compound,inhibition of CBP/p300 acetyltransferase
1,"CC(C)(COP(=O)(O)OP(=O)(O)OC[C@H]1O[C@@H](n2cnc3c(N)ncnc32)[C@H](O)[C@@H]1OP(=O)(O)O)[C@@H](O)C(=O)NCCC(=O)NCCSC(=O)[C@@H](N)CCCCN [lysyl CoA, reference compound]",known inhibitor of CBP/p300 acetyltransferase

# Target: T1, recombinant HAT1 (Homo sapiens, UniProt O14929)
# T1 construct: FLAG (DYKDDDDK); made in house; host or cells: HEK-293f freestyle cells (human), forskolin-treated; purified by FLAG immunoprecipitation
# T1 sequence (O14929 1-419): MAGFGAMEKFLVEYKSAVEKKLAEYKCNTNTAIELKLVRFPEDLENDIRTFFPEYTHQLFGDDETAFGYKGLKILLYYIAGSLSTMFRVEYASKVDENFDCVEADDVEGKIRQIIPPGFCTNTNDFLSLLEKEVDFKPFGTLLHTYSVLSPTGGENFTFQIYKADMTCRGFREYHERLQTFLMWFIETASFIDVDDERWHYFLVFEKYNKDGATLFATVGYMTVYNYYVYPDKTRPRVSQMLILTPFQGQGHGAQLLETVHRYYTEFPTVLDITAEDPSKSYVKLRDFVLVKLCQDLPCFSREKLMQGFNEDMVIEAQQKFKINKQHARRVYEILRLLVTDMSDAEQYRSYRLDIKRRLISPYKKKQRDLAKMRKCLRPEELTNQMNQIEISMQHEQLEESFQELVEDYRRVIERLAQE
# Experiment: HAT1 modulator assay (4-pentynoyl CoA, click chemistry, streptavidin-HRP fluorescence)
# Format: biochemical
# Details: HAT1 assay; FIGS. 7B and 9
# From the text: Provided in FIG. 4 is an exemplary embodiment of an experimental assay to identify modulators of HAT1. To begin the assay, a putative modulator is mixed with the substrate histone H4 N-terminal peptide, the acetyl-like donor 4-pentynonyl CoA, and recombinant HAT1. The H4 N-terminal peptide is the first 23 amino acids of H4 (SEQ. ID No. 1) with a biotin conjugated at the C-terminus of the peptide. Importantly, K5 and K12 of the H4 N-terminal peptide are available for di-acetylation. The 4-pentynoyl CoA is an acetyl CoA derivative having an […] extending from the acetyl group. The recombinant HAT1 is produced in human cells with a peptide tag […] (FLAG®), which is purified via immunoprecipitation.
# Each reaction is carried out within a well of a 96-well plate for one hour at 37° C., resulting in pentynoylation of K5 and K12 of the substrate peptide. The reactions are transferred to a neutravidin-coated 96-well plate to capture the biotinylated peptide via a neutravidin-biotin interaction performed for one hour at room temperature. After washing the wells 3X with PBS-tween, the substrate peptides are exposed to biotinylated azide, which reacts with the pentynoyl groups in a copper (I) click chemistry reaction to further functionalize these appendages with biotin, which is performed at 37° C. for 1 hour. Substrates that were acetylated by HAT1 now have an available biotin extending from K5 and K12. After washing the wells 3X with PBS-tween, streptavidin-HRP is added to the well to bind to every available biotin for one hour at 37° C. After washing the wells 3X with PBS-tween, 10-Acetyl-3,7-dihydroxyphenoxazine (Amplex® Red ThermoFisher® Scientific, Waltham, MA) is added as a substrate of HRP and incubated for 30 minutes to produce a detectable fluorescence (570 nm excitation and 585 nm emission), which is measurable utilizing a plate reader.
# The HAT1 enzymatic reaction conditions was also optimized, utilizing 0.1M EDTA, 0.1M DTT or both. As portrayed in the right panel of FIG. 5, 0.1M DTT provided the best activity and was utilized in the assay reaction.
# FIG. 6 provides HAT1 enzyme kinetics (left panel) and Michaelis-Menten analysis (right panel). To perform the enzyme kinetics, various amounts of input enzyme were tested in 20 uL reaction with the amount of activity measured over time. […] Assay reactions were run with 15 μM of substrate peptide.
row,Compound,inhibition of HAT1 activity
1,"CC[C@@]1(O)C[C@H](O[C@H]2C[C@H](N(C)C)[C@H](O)[C@H](C)O2)c2c(O)c3c(c(O)c2[C@H]1O[C@H]1C[C@H](N(C)C)[C@H](O)[C@H](C)O1)C(=O)c1cccc(O)c1C3=O [NSC 136044, rhodomycin A]",various ability to inhibit HAT1
2,"COc1cccc2c1C(=O)c1c(O)c3c(c(O)c1C2=O)CC(O)(/C(C)=N/O)CC3OC1CC(N)C(O)C(C)O1 (stereo not drawn) [NSC 143491, daunomycin 3-oxime hydrochloride]",various ability to inhibit HAT1
3,"CC[C@@]1(O)C[C@H](O[C@H]2C[C@H](N(C)C)[C@H](O[C@H]3C[C@H](O)[C@H](O[C@H]4CCC(=O)[C@H](C)O4)[C@H](C)O3)[C@H](C)O2)c2c(cc3c(c2O)C(=O)c2c(O)cccc2C3=O)[C@H]1C(=O)OC [NSC 208734, aclacinomycin A1]",various ability to inhibit HAT1
4,"CC[C@@]1(O)C[C@H](O[C@H]2C[C@H](N(C)C)[C@H](O[C@H]3C[C@@H]4O[C@H]5CC(=O)[C@H](C)O[C@H]5O[C@@H]4[C@H](C)O3)[C@H](C)O2)c2c(cc3c(c2O)C(=O)c2c(O)ccc(O)c2C3=O)[C@H]1C(=O)OC [NSC 243023, cinerubin B]",various ability to inhibit HAT1
5,"CC[C@@]1(O)C[C@H](OC2CC(N(C)C)C(OC3CC(O)C(OC4CC(O)C(O)C(C)O4)C(C)O3)C(C)O2)c2c(cc3c(c2O)C(=O)c2c(O)ccc(O)c2C3=O)[C@H]1C(=O)OC (stereo partly drawn) [NSC 265211, Methyl (1R,2R,4S)-4-[5-[5-(4,5-dihydroxy-6-methyloxan-2-yl)oxy-4-hydroxy-6-methyloxan-2-yl]oxy-4-(dimethylamino)-6-methyloxan-2-yl]oxy-2-ethyl-2,5,7,10-tetrahydroxy-6,11-dioxo-3,4-dihydro-1H-tetracene-1-carboxylate]",various ability to inhibit HAT1
6,"COC1C(C)OC(OC2CC(C)(O)Cc3cc4c(c(O)c32)C(=O)c2c(O)cc3c(c2C4=O)OC2OC3(C)C(O)C(N(C)C)C2O)C(OC)C1(C)OC (stereo not drawn) [NSC 265450, nagalomycin C]",various ability to inhibit HAT1
7,"CC[C@@]1(O)C[C@H](O[C@H]2C[C@H](N(C)C)[C@H](O)[C@H](C)O2)c2c(cc3c(c2O)C(=O)c2c(O)ccc(O)c2C3=O)[C@H]1C(=O)OC [NSC 267229, pyrromycin]",various ability to inhibit HAT1
8,"COc1cccc2c1C(=O)c1c(O)c3c(c(O)c1C2=O)C[C@@](O)(C(C)=O)C[C@@H]3OC1CC(N(Cc2ccccc2)Cc2ccccc2)C(O)C(C)O1.Cl (stereo partly drawn) [NSC 268242, N,N-Dibenzyldaunorubicin]",various ability to inhibit HAT1
9,"CC(C)(COP(=O)(O)OP(=O)(O)OC[C@H]1O[C@@H](n2cnc3c(N)ncnc32)[C@H](O)[C@@H]1OP(=O)(O)O)[C@@H](O)C(=O)NCCC(=O)NCCSC(=O)[C@@H](N)CCCCN [lysyl CoA, reference compound]",did not inhibit HAT1 activity

# Same assay, conditions: Michaelis-Menten analysis, H4 peptide substrate varied; FIG. 6
row,Km [µM],Compound
1,13,H4 peptide substrate: first 23 amino acids of H4 (SEQ. ID No. 1) with a biotin conjugated at the C-terminus [reference compound]

# Same assay, conditions: screen of fifty compounds; FIG. 8
row,Compound,modulation of HAT1 activity (agonist or antagonist)
1,"O=C(O)C(O)C(O)C(=O)O.OCC(O)C(O)C(O)C(O)C(O)c1nc2ccccc2[nH]1 (stereo not drawn) [NSC 56094, 1-(1H-Benzimidazol-2-yl)hexane-1,2,3,4,5,6-hexol; 2,3-dihydroxybutanedioic acid]",agonists
2,"CC1(O)Nc2nc3c(ncn3C3OC(CO)C(O)C3O)c(=O)n2C1O (stereo not drawn) [NSC 309109, 3-[3,4-Dihydroxy-5-(hydroxymethyl)oxolan-2-yl]-6,7-dihydroxy-6-methyl-5,7-dihydroimidazo[1,2-a]purin-9-one]",antagonists
3,"OCC(O)C(OC1OC(CO)C(O)C(O)C1O)C(O)c1cnn(-c2ccccc2)n1 (stereo not drawn) [NSC 405936, 2-(Hydroxymethyl)-6-[1,3,4-trihydroxy-1-(2-phenyltriazol-4-yl)butan-2-yl]oxyoxane-3,4,5-triol]",agonists
4,nogalarol [NSC 86005],antagonists
